In article PMC9608462 (Molecules, 2022):
Like-named read-outs stand apart in the source and are kept apart here.

Assays:
human ERα = target: T1, human ERα (Homo sapiens, UniProt P03372); assay: Fluorescence polarization ER/D22 coactivator-peptide assay, ERα; format: biochemical; conditions: for agonistic/antagonistic activity for ERα: fluorescence polarisation, recombinant receptor; for EC50: recombinant human ERα, D22 peptide, 1 h
T1 construct: purchased Panvera (Göttingen, Germany)
T1 sequence (P03372 1-595): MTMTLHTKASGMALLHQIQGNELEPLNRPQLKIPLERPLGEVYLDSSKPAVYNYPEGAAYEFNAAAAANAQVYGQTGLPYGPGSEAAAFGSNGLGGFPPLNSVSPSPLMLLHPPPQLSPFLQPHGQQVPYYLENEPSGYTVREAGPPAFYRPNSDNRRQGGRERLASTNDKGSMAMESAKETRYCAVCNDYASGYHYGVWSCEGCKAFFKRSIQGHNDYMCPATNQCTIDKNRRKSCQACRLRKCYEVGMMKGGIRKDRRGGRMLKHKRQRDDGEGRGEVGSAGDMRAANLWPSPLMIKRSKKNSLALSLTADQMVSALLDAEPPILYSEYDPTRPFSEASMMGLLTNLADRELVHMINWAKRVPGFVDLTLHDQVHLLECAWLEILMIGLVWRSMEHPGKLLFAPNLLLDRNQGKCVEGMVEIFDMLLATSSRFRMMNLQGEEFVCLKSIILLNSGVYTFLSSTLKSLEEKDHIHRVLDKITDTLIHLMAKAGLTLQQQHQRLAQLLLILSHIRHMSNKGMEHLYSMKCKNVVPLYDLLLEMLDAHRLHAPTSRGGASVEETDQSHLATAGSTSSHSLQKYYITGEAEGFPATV
Method: (§1) Binding affinities to ERα and ERβ were determined by the dose dependence binding of the test compounds with purified human Erα and Erβ. All chemicals were obtained from Panvera (Göttingen, Germany). The assay was performed according to the protocols recommended by the manufacturer. […] D22 is a coactivator-like peptide containing an LXXLL motif and flanking sequences that resemble known coactivators. Agonist-bound ER (ERα or ERβ) can recruit D22, resulting in a more significant fraction of bound D22 and a larger polarization value. Antagonist-bound ER has a lower affinity for D22, yielding a more significant fraction of unbound D22 and a lower polarization value. Recombinant human ERα or ERβ were incubated with the tested compounds for one hour. Fluorescence polarization was measured using a Tecan Ultra Evolution multiwell plate reader (Tecan, Crailsheim, Germany) at excitation wavelength 540 nm and emission wavelength 580 nm. […] The EC50 values were derived by logarithmic curve-fitting from binding curves using GraphPad Prism 8.4.3. GraphPad Software, San Diego, California, USA. EC50 was determined from at least three independent experiments.

[1] = test system: human endometrial adenocarcinoma cells (Ishikawa); conditions: E2-induced; cited from earlier work
[2] = test system: MCF-7 cells transfected with luciferase reporter gene; conditions: read-out: EC50 of luciferase expression; cited from earlier work
[3] = test system: human endometrial adenocarcinoma cells (Ishikawa); conditions: read-out: IC50, suppression of E2-induced expression of alkaline phosphatase; cited from earlier work
Ishikawa cells = Ishikawa cells proliferation (alkaline phosphatase activity); format: cell-based, human; conditions: for alkaline phosphatase activity of Ishikawa cells: 10^3–10^4 nM; for alkaline phosphatase activity of Ishikawa cells / alkaline phosphatase activity / proliferation of Ishikawa cells: 72 h; for alkaline phosphatase activity / proliferation of Ishikawa cells: 10–100 nM
Method: The estrogen-stimulated proliferation of Ishikawa cells was performed according to Wober and coworkers with some modifications: Ishikawa cells were seeded at a density of 5 × 10^3 cells/well in 96-well plates in phenol red-free DMEM/F12 containing 10% charcoal dextran-treated FBS. After 72 h, cells were washed with PBS and kept in the same media for the next 24 h. Then, the medium was changed, and cells were incubated with the tested compounds at concentrations ranging from 10^1 to 10^4 nM for 72 h. As a positive control, E2 at a concentration of 1 nM was used. […] The treated cells were grown for 72 h. The estrogenic stimulation was evaluated by alkaline phosphatase activity. After incubation, the cells were washed with PBS, and the plates were frozen at −20 °C until analysis. After thawing, the plates were warmed in a water bath up to 22 °C and incubated with the p-Nitrophenyl Phosphate Liquid Substrate System (Sigma-Aldrich). This ready-to-use, single-solution reagent contains p-nitrophenyl phosphate, buffer and the necessary magnesium cations. Alkaline phosphatase releases p-nitrophenol, measured kinetically at 405 nm using plate reader Biotek Instruments, Elx-800, Winooski, VT, USA).

MCF-7 cells = MCF-7 cells proliferation (Hoechst 33258 DNA fluorescence); format: cell-based, human; conditions: for DNA level / DNA synthesis of MCF-7 cells: 10^3–10^4 nM
Method: The estrogen-stimulated proliferation of MCF-7 cells was performed using Hoechst 33258 DNA staining. […] After 24 h, cells were washed with PBS and kept in the same media for the next 48 h. Then, cells were incubated with tested compounds at concentrations ranging from 10^1 to 10^4 nM for 96 h. E2 at 1 nM and 10 nM was used as a positive control. […] Proliferation was assessed by the fluorometric measurement of DNA. For this purpose, cells were washed with PBS, lysed using EDTA (0.5 mL, […], pH 12.3) at 37 °C for 30 min and neutralized with 10 mM KH2PO4, and then, Hoechst 33258 (1 mg/mL) was added. Excitation at 350 nm and emission at 455 nm was used for fluorescence measurement using Tecan Infinite M Plex microplate reader (Männedorf, Switzerland).

human ERβ = target: T2, human ERβ (Homo sapiens, UniProt Q92731); assay: Fluorescence polarization ER/D22 coactivator-peptide assay, ERβ; format: biochemical; conditions: for agonistic/antagonistic activity for ERβ: fluorescence polarisation, recombinant receptor; for EC50: recombinant human ERβ, D22 peptide, 1 h
T2 construct: purchased Panvera (Göttingen, Germany)
T2 sequence (Q92731 whole entry): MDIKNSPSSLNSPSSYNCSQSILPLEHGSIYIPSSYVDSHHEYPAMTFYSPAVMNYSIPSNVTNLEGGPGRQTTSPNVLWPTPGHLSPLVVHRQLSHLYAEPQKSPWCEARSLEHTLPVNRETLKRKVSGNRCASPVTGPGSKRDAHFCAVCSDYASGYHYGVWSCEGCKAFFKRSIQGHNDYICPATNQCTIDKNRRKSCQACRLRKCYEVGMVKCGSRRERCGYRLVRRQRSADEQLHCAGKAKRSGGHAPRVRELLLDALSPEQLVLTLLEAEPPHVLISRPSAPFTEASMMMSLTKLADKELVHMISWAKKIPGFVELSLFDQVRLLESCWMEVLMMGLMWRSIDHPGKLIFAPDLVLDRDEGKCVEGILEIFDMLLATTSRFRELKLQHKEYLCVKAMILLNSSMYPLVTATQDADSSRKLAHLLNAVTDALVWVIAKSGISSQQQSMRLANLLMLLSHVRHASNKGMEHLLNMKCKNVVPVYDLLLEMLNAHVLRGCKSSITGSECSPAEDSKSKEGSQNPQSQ
Method: as §1

[4] = 100–1000 nM (as in conclusions)

agonistic/antagonistic activity for ERα (human ERα) | EC50 (human ERα; read-out: ERα Agonist EC50) [nM] | agonistic/antagonistic activity for ERβ (human ERβ) | EC50 (human ERβ; read-out: ERβ Agonist EC50) [nM] | EC50 (human ERα; read-out: ERα antagonist EC50) [nM] | EC50 (human ERβ; read-out: ERβ antagonist EC50) [nM] | Compound | concentration range suppressing progesterone receptor (PR) mRNA levels [1] [µM] | EC50 [2] [nM] | IC50 [3] [nM] | alkaline phosphatase activity of Ishikawa cells (Ishikawa cells) | proliferation of Ishikawa cells (Ishikawa cells; [4]) | DNA level / DNA synthesis of MCF-7 cells (MCF-7 cells) | proliferation of MCF-7 cells (MCF-7 cells; [4]) | alkaline phosphatase activity / proliferation of Ishikawa cells (Ishikawa cells)
agonistic activity | 21.2 ± 2.2 | – | – | – | – | Oc1ccc(/C=C/c2cc(O)cc(O)c2)cc1 [resveratrol] | 5 to 15 | 5000 to 10000 | 2300 | stimulated an increase in the level of the assessed markers | stimulated the proliferation | stimulated an increase in the level of the assessed markers | stimulated the proliferation | –
agonistic activity | 108 ± 10.2 | could act as ERβ agonists | 8.1 ± 1.6 | – | – | Oc1ccc(C=Cc2cc(O)c(O)c(O)c2)cc1 [Compound M8, 3,4,4′,5-tetrahydroxystilbene] | – | – | – | significantly lower compared with the control | – | increased DNA synthesis | – | stimulated the alkaline phosphatase
antagonistic activity | – | – | – | 1010 ± 30.5 | > 5000 | Oc1cc(O)cc(C=Cc2cc(O)c(O)c(O)c2)c1 [Compound M11, 3,3′,4,5,5′-pentahydroxystilbene] | – | – | – | significantly lower compared with the control | – | significantly lower compared with the control | – | stimulated the alkaline phosphatase
antagonistic activity | – | did not show an antagonistic effect | – | 110 ± 15.5 | > 5000 | Oc1cc(C=Cc2cc(O)c(O)c(O)c2)cc(O)c1O [Compound M12, 3,3′,4,4′,5,5′-hexahydroxystilbene] | – | – | – | significantly lower compared with the control | – | – | – | stimulated the alkaline phosphatase
